Ends that are not written are not given here. * marks the point of attachment. Butanoyl(2-oxo) = CCC(=O)C(=O)*; Pyruvoyl = CC(=O)C(=O)*
Tests used:
[1] = test system: His6-ElxO; assay: His6-ElxO activity assay (NADPH absorbance at 340 nm, LC-MS); assay type: biochemical, Staphylococcus epidermidis 15X154; conditions: LC-MS analysis
Experimental: Wild type or mutant His6-ElxO (2 or 10 μM) and purified peptide (0.1 to 5 mM) were incubated with NADPH (2.5 mM) in assay buffer (100 mM HEPES, 500 mM NaCl, pH 7.5) at 25° C. Reaction progress was monitored by UV spectrophotometry to measure initial rates, measuring the disappearance of NADPH absorbance at 340 nm. […] The mobile phase was 0.1% (v/v) formic acid in water (A) and methanol (B). A gradient of 0-70% (v/v) B in A over 30 minutes and a flow rate of 0.5 mL min^−1 were used.
Synthetic lactocin S (50 μM), obtained from Prof. J. Vederas (University of Alberta), was incubated with His6-ElxO (50 μM) and NADPH (10 mM) in assay buffer (100 mM HEPES, 500 mM NaCl, pH 7.5) at room temperature for 12 h. […] A gradient of 3-97% (v/v) B (0.10% (v/v) formic acid in methanol) in A (0.1% (v/v) formic acid in water) over 12 min was used.

[2] = test system: Pediococcus acidilactici Pac1.0; assay: Agar diffusion bioactivity assay; assay type: cell-based; conditions: for activity against P. acidilactici Pac1.0: agar diffusion
Experimental: (§1) Agar diffusion bioactivity assays were performed using de Man-Rogosa-Sharpe (MRS) agar media. For each assay, aliquots of agar medium inoculated with overnight cultures of indicator strain (1/100 dilution) were poured into sterile plates. Aliquots of 20 μL of sample were placed into wells made on the solidified agar and the plates were incubated at 37° C. overnight. For determination of critical concentration, the diameter of the inhibition zones were determined and fitted to the equation D=a+b×(C), where D is the diameter of the inhibition zone, C is the concentration of bacteriocin, and a and b are constant parameters. For MIC determinations, serial dilutions of peptides were prepared in MRS broth and aliquots of 50 μL were dissolved in 150 μL of a 1 to 50 dilution of an overnight culture of indicator strain in fresh MRS broth on 96-well plates. The cultures were incubated at 37° C. overnight and the wells with no bacterial growth (OD600<0.3) were determined.

[3] = test system: L. sake L45; assay: Agar diffusion bioactivity assay, lactocin S producer strain; assay type: cell-based, Lactobacillus sake
Experimental: as §1

[4] = test system: modified CylLS; assay: Kinetic analysis of full length CylA and CylA-96-412 against modified CylLS (LC/MS); assay type: biochemical, Enterococcus faecalis
Experimental: Targeted peptides were dissolved in H2O to a final concentration of 3 mg/mL. To a 85 μL solution of peptides, 10 μL of 500 mM HEPES buffer (pH 7.5) was added followed by 5 μL of 0.5 mg/mL AspN protease (for modified CylLL and CylLS peptides), 0.1 mg/mL CylA protease (for modified and unmodified CylLL, CylLS peptides, and modified HalA2-GDVQAE peptide) or 0.1 mg/mL LicP protease (for LicA2). For cleavage tests of the engineered GDVQAE peptides, CylA was added to a final concentration of 0.01 mg/mL, whereas the peptide was added to a concentration of 0.3 mg/mL with 50 mM HEPES buffer (pH 7.5). The protease cleavage reaction mixtures were kept at 25° C. for 1 to 48 h. Osmotic pressure was adjusted with NaCl solution with a final concentration of 150 mM. The digested peptide mixture was directly used for antimicrobial and hemolytic assay. For the kinetic analysis of CylA and its mutant proteins, His6-CylA-27-412 and His6-CylA-27-412-E95A proteins were added to a final concentration of 500 ng/mL and 2.5 μg/mL (22 nM and 110 nM), respectively, with modified CylLS supplied at a concentration of 0.3 mg/mL (36 μM). The reactions were allowed to proceed at room temperature and were stopped by 1% TFA at different time points for LC/MS analysis. Halα and Halβ were obtained by factor Xa cleavage of modified HalA1Xa and HalA2 Xa peptides using the procedure of Y. Shi, et al. J. Am. Chem. Soc. 2011, 133, 2338. CylLL″ and CylLS″ were prepared in the same way using modified CylLL-E-1K and CylLS-E-1K peptides as described in W. Tang and W. A. van der Donk, Nat. Chem. Biol. 2013, 9, 157.
As full length CylA is not available due to its self-cleavage, His6-CylA-27-412-E95A was chosen to serve as a substituent of full length CylA as the self-cleavage was abolished whereas the conserved catalytic C-terminal region of CylA remained unchanged. To obtain the mature protease CylA-96-412, His6-CylA-27-412 was aged at 4° C. for 12 hours to allow the self-cleavage to proceed until CylA-96-412 was the dominant peak monitored by MALDI-TOF MS. The aged protein mixture was directly used as a substituent of CylA-96-412. To test the proteases' activities, CylA-96-412 and His6-CylA-27-412-E95A were supplied with a final concentration of 22 nM and 110 nM, respectively, with modified CylLS served at a concentration of 36 μM. The reactions were stopped at 3 minute, 6 minute, 12 minute and 24 minute by 1% TFA and the formation of mature CylLS″ was monitored by liquid chromatography MS (LC/MS). […] The production of core peptide was analyzed by extracted ion chromatography monitoring the desired product mass 1017 (M+2H^+).

[5] = Storage and freeze-thaw stability of the proteases; assay type: physicochemical
[6] = molecular target: modified CylLS
[7] = test system: CylA; assay: CylA self-cleavage (SDS-PAGE, MALDI-TOF MS); assay type: biochemical, Enterococcus faecalis
Experimental: E. coli BL21 (DE3) cells were transformed with pRSFDuet-1/CylA-27-412, pRSFDuet-1/CylA-27-412-E95A, pRSFDuet-1/CylA-27-412-S359A or pRSFDuet-1/LicP-25-433 vectors and plated on an LB plate containing 50 mg/L kanamycin. A single colony was picked and grown in 20 mL of LB with kanamycin at 37° C. for 12 h and the resulting culture was inoculated into 2 L of LB. Cells were cultured at 37° C. until the OD at 600 nm reached 0.5, cooled and IPTG was added to a final concentration of 0.1 mM. The cells were cultured at 18° C. for another 10 h before harvesting. The cell pellet was resuspended on ice in LanP start buffer (20 mM HEPES, 1 M NaCl, pH 7.5 at 25° C.) and lysed by homogenization. The lysed sample was centrifuged at 23,700×g for 30 min and the pellet was discarded. The supernatant was passed through 0.45-μm syringe filters and the protein was purified by immobilized metal affinity chromatography (IMAC) loaded with nickel as described in B. Li et al. Methods Enzymol. 2009, 458, 533. […] Protein concentration was quantified by its absorbance at 280 nm. The extinction coefficient for His6-CylA-27-412, His6-CylA-27-412-E95A and His6-CylA-27-412-S359A was calculated as 30,830 M^−1 cm^−1. The extinction coefficient for His6-LicP-25-433 was calculated as 46,300 M^−1 cm^−1. […]

[8] = serial dilution agar diffusion, versus control samples containing native lactocin S

Molecule | reduction by His6-ElxO in the presence of NADPH [1] | further results
Glx-AAIVK | no significant formation of the reduced peptide | –
Obu-RAIVK | accepted as substrates | –
OBu-AAAVK ({Butanoyl(2-oxo)}-AAAVK) | substrates for the enzyme | –
OBu-AAIAK | substrates for the enzyme | –
Pyr-AAVLK | reduced | –
Pyr-AAIV (Pyruvoyl-AAIV) | reduced | –
Obu-AAIVK | accepted as substrates | –
Pyr-AAI (Pyruvoyl-Ala-Ala-Ile) | reduced | –
dihydrolactocin S | – | activity against P. acidilactici Pac1.0 [2]: active; critical concentrations (no inhibition zone) [2, 8]: smaller; inhibition zones [2, 8]: slightly larger; activity against L. sake L45 [3]: not against L. sake L45
lactocin S [reference compound] | confirming the formation of dihydrolactocin S | activity against P. acidilactici Pac1.0 [2]: active; activity against L. sake L45 [3]: not against L. sake L45
Pyr-APVLA (Pyruvoyl-APVLA) [resembles the N-terminus of lactocin S] | reduced | –
Pyr-LGPAIK (Pyruvoyl-LGPAIK) [mimics the N-terminal portion of dehydroepicidin 280] | reduced | –
Pyr-BPVLAAVAVAKKK | reduced | –
OBu-AGPAIR ({Butanoyl(2-oxo)}-AGPAIR) [resembles the N-terminus of Pep5] | reduced | –
CylA: class II LanP subtilisin-like serine protease of enterococcal cytolysin biosynthesis, SEQ ID NO: 9 (protein, … PEPTIDE SEQUENCE FOR FULL LENGTH CylA) MKKRGLTYILISYIFLILGTTGYASDLSNNISFFIDNSQTTAIEEIESELSSEKVDYIQEIGLVSFKNLDDSDRKFIGKYFNVSEGKKLPDFKPEEVNSSILNINILNKDFKSFNWPYKKILSHIDPVKEQLGKDITIALIDSGIDRLHPNLQDNNLRLKNYVNDIELDEYGHGTQVAGVIDTIAPRVNLNSYKVMDGTDGNSINMLKAIVDATNDQVDIINVSLGSYKNMEIDDERFTVEAFRKVVNYARKNNILIVASAGNESRDISTGNEKHIPGGLESVITVGATKKSGDIADYSNYGSNVSIYGPAGGYGDNYKITGQIDAREMMMTYYPTSLVSPLGKAADFPDGYTLSFGTSLATPEVSAALAAIMSKNVDNSKDSNEVLNTLFENADSFIDKNSMLKYKEVRIK | – | turnover rate [4]: 20 min⁻¹; activity after multiple rounds of freeze-thaw [5]: no obvious decrease of activity; stability on storage ([5]; −20° C): stable
CylA-96-412 (protein) EVNSSILNINILNKDFKSFNWPYKKILSHIDPVKEQLGKDITIALIDSGIDRLHPNLQDNNLRLKNYVNDIELDEYGHGTQVAGVIDTIAPRVNLNSYKVMDGTDGNSINMLKAIVDATNDQVDIINVSLGSYKNMEIDDERFTVEAFRKVVNYARKNNILIVASAGNESRDISTGNEKHIPGGLESVITVGATKKSGDIADYSNYGSNVSIYGPAGGYGDNYKITGQIDAREMMMTYYPTSLVSPLGKAADFPDGYTLSFGTSLATPEVSAALAAIMSKNVDNSKDSNEVLNTLFENADSFIDKNSMLKYKEVRIK | – | rate of proteolysis, formation of CylLS″ by LC/MS (22 nM enzyme, 36 µM substrate) [6]: CylA-96-412 catalyzed the proteolysis of 20 substrate peptides per minute; rate of proteolysis of modified CylLS ([4]; enzyme 22 nM, modified CylLS 36 μM, room temperature, LC/MS): 20 substrate peptides per minute
His6-CylA-27-412: CylA without secretion signal residues 1-26, N-terminal hexa-histidine tag, SEQ ID NO: 10 (protein, N-terminal His6 tag; … PEPTIDE SEQUENCE FOR CylA with His6-tag, without the secretion signal peptide.) MGSSHHHHHHSQDPNSLSNNISFFIDNSQTTAIEEIESELSSEKVDYIQEIGLVSFKNLDDSDRKFIGKYFNVSEGKKLPDFKPEEVNSSILNINILNKDFKSFNWPYKKILSHIDPVKEQLGKDITIALIDSGIDRLHPNLQDNNLRLKNYVNDIELDEYGHGTQVAGVIDTIAPRVNLNSYKVMDGTDGNSINMLKAIVDATNDQVDIINVSLGSYKNMEIDDERFTVEAFRKVVNYARKNNILIVASAGNESRDISTGNEKHIPGGLESVITVGATKKSGDIADYSNYGSNVSIYGPAGGYGDNYKITGQIDAREMMMTYYPTSLVSPLGKAADFPDGYTLSFGTSLATPEVSAALAAIMSKNVDNSKDSNEVLNTLFENADSFIDKNSMLKYKEVRIK | – | CylA self-cleavage during expression or purification [7]: cleavage event after residue Glu95

Source: patent US20240018501A1, “HIGHER PERFORMANCE PROTEASES FOR SCARLESS PEPTIDE TAG REMOVAL” (priority 2017, published 2024)
